Key:
Type in all cases: cell-based
Q61 mutant cells = assay: Exon skipping by PS+2′MOE antisense oligos in Q61 mutant cells; details: in vitro
Protocol: RNA was extracted using the RNeasy Mini kit (Qiagen) and cDNA was synthesized using the QuantiTect Reverse Transcription Kit (Qiagen). Isoforms were amplified using gene-specific-primers (FIG. 24) and amplicons were resolved on a 2% agarose gel. Isoforms were characterized by Sanger sequencing.
RAS mutant cell lines in culture media were treated in suspension with indicated concentrations of morpholino and 3-6 μM endo-porter (Gene Tools). Duration of treatment was 2 days for RNA experiments, 3 days for western blot, and 8 days for growth-inhibition assay based on previously published treatment protocols with KRAS selective inhibitors against RAS mutant cells^4. In all experiments using full PS+2′MOE antisense oligos, medium was enriched with Ca^2+. Ca^2+ enrichment of medium potentiates the in vitro activity of multiple types of oligonucleotides and is more reflective of in vivo conditions than conventional transfection methods^42. Duration of treatment was 2 days for RNA experiments, 6 days for western blot, and 8 days for growth-inhibition assay.

mutant KRAS pre-mRNA = assay: NGS of remaining full-length KRAS transcript in SW948 cells; details: dose dependent, decreased from 44%
Description: The use of mutant selective antisense oligos can be used to induce aberrant splicing only in tumor cells, but not in normal cells lacking the Q61 mutation, minimizing off target toxicity (FIG. 4 panel a). Using this approach, we induced skipping of whole exon 3 in the KRAS GQ60GK lung cancer CALU6 cell line, in a dose dependent manner (FIG. 4 panel b). […] To assess the selectivity of the morpholino for the KRAS mutant over wild type transcript, the identity of the full-length pre-mRNA contributing to the exon 3 spliced mRNA following morpholino treatment needed to be determined. […] We PCR-amplified KRAS cDNA generated from morpholino treated SW948 cells, separated it by gel electrophoresis and analyzed by NGS the remaining full-length transcript, in order to obtain the ratio of mutant versus wild type KRAS pre-mRNA targeted by the morpholino. […] We next evaluated the effect of these oligos on cell growth. As not all RAS mutant cell lines are dependent on RAS signaling for their growth^28, we determined RAS dependency of each of the Q61 mutant cell lines using KRAS, NRAS or HRAS specific siRNAs, and compared our findings to published gene effect scores for dependency by RNAi and CRISPR knock out obtained from Depmap (depmap.org) (FIG. 4 panel e). […] We also evaluated MEK inhibitor sensitivity in a panel of these cell lines using trametinib (FIG. 10 panel b). […]

[1] = test system: CRISPR-modified PC9 cell lines; assay: Cell viability assay of parental or CRISPR-modified PC9 cells with osimertinib
Protocol: Parental or CRISPR-modified PC9 cell lines (1×10^3 cells) were plated in 384-well plates. After 24 hours, cells were treated with drugs at the indicated concentrations for 72 hours. Endpoint cell viability assays were performed using Cell Titer Glo (Promega). RAS mutant cell lines (2×10^3 cells) were seeded in 384 ultra-low attachment plates as suspension cells and evaluated using 3D-Cell Titer Glo (Promega). RAS mutant cells were treated with trametinib for 3 days and with antisense oligos or siRNA for 8 days.

ERK1/2 = assay: Western blot after osimertinib treatment in PC9 cells
Protocol: (§1) Cells were lysed with RIPA buffer (Boston Bioproducts) supplemented with complete Mini EDTA-free Protease inhibitor cocktail (Roche) and PhoSTOP phosphatase inhibitor cocktail (Roche). The total cell lysate (20 ug) was subjected to SDS polyacrylamide gel electrophoresis and transferred to Immobilon-P polyvinylidene difluoride membranes (Bio-Rad Laboratories). Antibodies are listed in supplementary table 10. RAS-GTP was evaluated using the Active Ras Detection Kit (#8821, Cell Signaling Technology). Cells were cultured with media containing 0.1% FBS with or without 1 μM osimertinib for 24 hours, and 80 ug of GST-Raf1-RBD and 500 ug of protein lysates were used according to the manufacturer's instructions.

RAS-GTP = RAS-GTP assay in KRAS expressing PC9 cell lines
Protocol: as §1

## PS+MOE 1-3: 20nt PS+2′MOE antisense oligo; 1-3 sequence 5′-ACTCCTCTTTGCCTGCTGTG-3′ (all 2'-MOE, all phosphorothioate, methylation of C not given here)
Q61 mutant cells
  mutant selective exon skipping compared with morpholino oligos: mutant selective skipping at a much lower concentration

## mor-4: morpholino targeting KRAS Q61L; M4 / mor-4-4 sequence 5′-GTACTCCTCTAGACCTGCTGTGTCG-3′ (all phosphorodiamidate morpholino (PMO))
Mutant KRAS pre-mRNA
  fraction of mutant KRAS pre-mRNA within the full-length transcript species: 22%

## C=CC(=O)Nc1cc(Nc2nccc(-c3cn(C)c4ccccc34)n2)c(OC)cc1N(C)CCN(C)C [osimertinib]
[1]; 1 μM osimertinib
  effect of osimertinib on KRAS G12C, G12D, A146T, or BRAF V600E clones: largely unaffected
[1]; heterozygous mutations
  osimertinib sensitivity of PC9 with heterozygous KRAS GQ60GK or Q61H: resistance
[1]; single-cell clones
  osimertinib sensitivity of PC9 clones harboring KRAS Q61K without silent mutation: growth inhibition comparable to that of parental PC9 cells
ERK1/2; PC9 KRAS GQ60GK
  ERK1/2 activation following osimertinib, KRAS GQ60GK c.180_181 delinsAA cells: persistent ERK1/2 activation
ERK1/2; PC9 KRAS Q61K alone
  ERK1/2 activation following osimertinib, KRAS Q61K alone cells: not in cells expressing KRAS Q61K alone
RAS-GTP; PC9 KRAS GQ60GK
  RAS-GTP levels after osimertinib, KRAS GQ60GK: minimally affected
RAS-GTP; PC9 Q61K or parental
  RAS-GTP after osimertinib, KRAS Q61K single mutant or KRAS wild type parental PC9: decrease in RAS-GTP

— patent US20240209371A1, “COMPOSITIONS AND METHODS FOR TREATING CANCER” (Dana-Farber Cancer Institute, Inc., priority 2021, published 2024)
